Results published in the supplement of paper PMC11208160.

Assay: recombinant UMI read abundance after kanamycin selection (control-corrected) (log10(CPM+1)); higher = more efficient recombination; extreme values may be limits of the assay; sequences stand for … in AGTGCAGAGAAAATCGGCCAGTTTTCTCTGCCTGCAGTCCGCATGCCGTGGGACCCCTTGGGTTCTAACCTGTTGCCTAGATTTATGCAGCGGACTGCCTTTCTCCCAAAGTGATAAACCGG…AGGTTGGTTTCACT; site = the 11-nt donor
In short: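 Sequencing read counts were converted to CPM, averaged over two replicates and scaled by control-derived factors. Results are given as log10(CPM+1). The reads covered the donor–target junction of recombinant UMIs from a pooled Escherichia coli screen of donor and donor-binding-loop pairs for the IS621 bridge recombinase.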
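Further: IS621 bridge recombinase in Escherichia coli cells against a fixed T5 target plasmid.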

Sequence | recombinant UMI read abundance (log10)
TCCATCGCATGGACCGGTTTTCCCGGTAATCCGTATTTGCG (site TCCAGCGCTCG) | 0.047
GAATGAGCATGGACCGGTTTTCCCGGTAATCCGTATTTGGG (site AAATGAGCTCC) | 0.0126
GCTACGTCATGGACCGGTTTTCCCGGTAATCCGTATTTGTT (site GGTACGTCTAA) | 0.0111
CCCCACACATGGACCGGTTTTCCCGGTAATCCGTATTTGTT (site CCCCACACTGA) | 0.246
CAGTCGTCATGGACCGGTTTTCCCGGTAATCCGTATTTGGG (site CAGTCGGCTCC) | 0.0122
TACGAATCATGGACCGGTTTTCCCGGTAATCCGTATTTGCG (site TACGAATCTCG) | 2.16
CAAGCAGCATGGACCGGTTTTCCCGGTAATCCGTATTTGCT (site CAAGCAGCTTG) | 1.3
TCAGTATCATGGACCGGTTTTCCCGGTAATCCGTATTTGCA (site GCAGTATCTTG) | 0.463
CAAGTCACATGGACCGGTTTTCCCGGTAATCCGTATTTGGT (site CAAGTCACTAC) | 1.84
CCCCGAGCATGGACCGGTTTTCCCGGTAATCCGTATTTGCA (site CCCCGAGCTTG) | 0.798
ATGGAGACATGGACCGGTTTTCCCGGTAATCCGTATTTGTA (site ATGGAGACTTA) | 2.41
GGTCCTACATGGACCGGTTTTCCCGGTAATCCGTATTTGTA (site GGTCCCACTTA) | 0.0198
AAGATGCCATGGACCGGTTTTCCCGGTAATCCGTATTTGTG (site AAGATGCCTCA) | 0.653
GTAGTTCCATGGACCGGTTTTCCCGGTAATCCGTATTTGGT (site GTTGTTCCTAC) | 0.00774
GGCAACCCATGGACCGGTTTTCCCGGTAATCCGTATTTGGA (site GGCAACCCTTC) | 0.0138
AGCTCAGCATGGACCGGTTTTCCCGGTAATCCGTATTTGGG (site AGCTCAGCTCT) | 0.337
GGCCCGCCATGGACCGGTTTTCCCGGTAATCCGTATTTGCC (site GGCCCGCCTGG) | 0
TTAGCTGCATGGACCGGTTTTCCCGGTAATCCGTATTTGTG (site TTAGCTGCTGA) | 0.631
CAATTCGCATGGACCGGTTTTCCCGGTAATCCGTATTTGCT (site CAATTCTCTAG) | 0

Sequence | recombinant UMI read abundance (log10)
TGGCGGGCATGGACCGGTTTTCCCGGTAATCCGTATTTGGC (site TGGCTGGCTGC) | 1.01
CACGGCCCATGGACCGGTTTTCCCGGTAATCCGTATTTGTT (site CACGCCCCTAA) | 0.0151
CCACCAGCATGGACCGGTTTTCCCGGTAATCCGTATTTGTA (site CCACCAGCTTA) | 1.17
CTAGTATCATGGACCGGTTTTCCCGGTAATCCGTATTTGAC (site CTTGTACCTGT) | 0.169
CTAGTATCATGGACCGGTTTTCCCGGTAATCCGTATTTGAC (site CTAGCATCTGT) | 1.59
GGAGTGGCATGGACCGGTTTTCCCGGTAATCCGTATTTGGT (site GGAGTGGCTCC) | 0.0114
CAGGCGCCATGGACCGGTTTTCCCGGTAATCCGTATTTGTG (site CATGCGCCTCA) | 0.0319
GACACACCATGGACCGGTTTTCCCGGTAATCCGTATTTGGT (site GACATACCTAC) | 0.00315
GTGGAGGCATGGACCGGTTTTCCCGGTAATCCGTATTTGTG (site GTGGAGTCTCA) | 1.82
GAAGATGCATGGACCGGTTTTCCCGGTAATCCGTATTTGTT (site GAAGATTCTAA) | 0
CCCACCGCATGGACCGGTTTTCCCGGTAATCCGTATTTGCG (site CCCACCGCTCG) | 0.00466
CACCCGTCATGGACCGGTTTTCCCGGTAATCCGTATTTGTT (site CACCCGTCTAA) | 2.2
CTAGTATCATGGACCGGTTTTCCCGGTAATCCGTATTTGAC (site TTAGTCTCTGT) | 0
ACATCTGCATGGACCGGTTTTCCCGGTAATCCGTATTTGGT (site ACATCTGCTAC) | 2.1
TAATCAGCATGGACCGGTTTTCCCGGTAATCCGTATTTGGG (site TAATCAGCTCC) | 0.0129
TAGCCCTCATGGACCGGTTTTCCCGGTAATCCGTATTTGGT (site TAGCCTTCTAC) | 0
CCAGGTGCATGGACCGGTTTTCCCGGTAATCCGTATTTGAA (site CCAGGTGCTGT) | 0
CGTCTATCATGGACCGGTTTTCCCGGTAATCCGTATTTGAT (site CGTCTATCTAT) | 0
CTCGACACATGGACCGGTTTTCCCGGTAATCCGTATTTGCT (site CTCGACACTAG) | 2.25

Sequence | recombinant UMI read abundance (log10)
ACATGTACATGGACCGGTTTTCCCGGTAATCCGTATTTGGT (site ACATGTACTAC) | 1.73
TGCTGGGCATGGACCGGTTTTCCCGGTAATCCGTATTTGGT (site TGCTGGGCTAC) | 0.306
ATGTAGGCATGGACCGGTTTTCCCGGTAATCCGTATTTGCC (site ATGTAGGCTGG) | 2.21
CCTGGTCCATGGACCGGTTTTCCCGGTAATCCGTATTTGCA (site CCTGGTCCTTG) | 0
CGGTAGACATGGACCGGTTTTCCCGGTAATCCGTATTTGCA (site CGGTAGACTTG) | 2.84
TCATGAGCATGGACCGGTTTTCCCGGTAATCCGTATTTGGG (site TGATGAGCTCC) | 0.00797
ACCACGCCATGGACCGGTTTTCCCGGTAATCCGTATTTGTA (site TCCACGCCTTA) | 0.0133
TTAGCTGCATGGACCGGTTTTCCCGGTAATCCGTATTTGTG (site TTAGCTTCTCA) | 0.00647
CTTTTATCATGGACCGGTTTTCCCGGTAATCCGTATTTGAC (site CTTTTATCTGT) | 0.762
GTGGAGGCATGGACCGGTTTTCCCGGTAATCCGTATTTGTG (site GAGGAGGCTCA) | 0.602
AGCGTAGCATGGACCGGTTTTCCCGGTAATCCGTATTTGTT (site AGCGTAGCTAA) | 1.33
AGTTACACATGGACCGGTTTTCCCGGTAATCCGTATTTGCC (site AGTTACACTGG) | 2.42
AGGTTAGCATGGACCGGTTTTCCCGGTAATCCGTATTTGAG (site AGGTTAGCTCT) | 1.94
GGCACAGCATGGACCGGTTTTCCCGGTAATCCGTATTTGAA (site GGCACAGCTTT) | 1.87
ATCTATACATGGACCGGTTTTCCCGGTAATCCGTATTTGAC (site ATCAATACTGT) | 0
GTAGAACCATGGACCGGTTTTCCCGGTAATCCGTATTTGCA (site GTAGAACCTTG) | 0
GGAGTGGCATGGACCGGTTTTCCCGGTAATCCGTATTTGGT (site GGAGTGACTAC) | 0.976
GGTCCAACATGGACCGGTTTTCCCGGTAATCCGTATTTGAA (site GGTCCAACTTT) | 0.0109
CGGAATCCATGGACCGGTTTTCCCGGTAATCCGTATTTGGT (site CGGAATCCTAC) | 0.913
